Data from patent publication US10526316B2, “Quinoxaline and pyridopyrazine derivatives as PI3Kβ inhibitors” (Janssen Pharmaceutica NV, priority 2015, dated 2020).
Read-outs that look alike come from different tables or passages of the source.

Key:
[1] = test system: Akt phosphorylated at Ser473 in PC-3 cells; assay: Cellular assay: phosphorylation of Akt at Ser473 in PC-3 cells (MSD ELISA); type: cell-based; settings: PC-3 cells, 60 min compound incubation, MSD ELISA, read-out: IC50 pAkt_S473
Procedure, shortened: (§1)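 PC-3 cells were exposed to compound or 0.3% DMSO for 60 min at 37° C, 5% CO2, then lysed in ice-cold buffer. Phospho-Akt was captured on site-specific antibody-coated plates and detected with Sulfo-tag anti-total Akt by electrochemiluminescence. IC50 values came from five-concentration response curves.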

PI3Kβ = molecular target: T1, PI3Kβ (Homo sapiens, UniProt P42338); assay: Enzyme binding assay (KINOMEscan, DiscoveRx); settings: PIK3Cβ_h, read-out: Kd PIK3Cβ_h
T1 construct: purchased DiscoveRx Corporation, San Diego (contract service, KINOMEscan)
T1 sequence (P42338 whole entry): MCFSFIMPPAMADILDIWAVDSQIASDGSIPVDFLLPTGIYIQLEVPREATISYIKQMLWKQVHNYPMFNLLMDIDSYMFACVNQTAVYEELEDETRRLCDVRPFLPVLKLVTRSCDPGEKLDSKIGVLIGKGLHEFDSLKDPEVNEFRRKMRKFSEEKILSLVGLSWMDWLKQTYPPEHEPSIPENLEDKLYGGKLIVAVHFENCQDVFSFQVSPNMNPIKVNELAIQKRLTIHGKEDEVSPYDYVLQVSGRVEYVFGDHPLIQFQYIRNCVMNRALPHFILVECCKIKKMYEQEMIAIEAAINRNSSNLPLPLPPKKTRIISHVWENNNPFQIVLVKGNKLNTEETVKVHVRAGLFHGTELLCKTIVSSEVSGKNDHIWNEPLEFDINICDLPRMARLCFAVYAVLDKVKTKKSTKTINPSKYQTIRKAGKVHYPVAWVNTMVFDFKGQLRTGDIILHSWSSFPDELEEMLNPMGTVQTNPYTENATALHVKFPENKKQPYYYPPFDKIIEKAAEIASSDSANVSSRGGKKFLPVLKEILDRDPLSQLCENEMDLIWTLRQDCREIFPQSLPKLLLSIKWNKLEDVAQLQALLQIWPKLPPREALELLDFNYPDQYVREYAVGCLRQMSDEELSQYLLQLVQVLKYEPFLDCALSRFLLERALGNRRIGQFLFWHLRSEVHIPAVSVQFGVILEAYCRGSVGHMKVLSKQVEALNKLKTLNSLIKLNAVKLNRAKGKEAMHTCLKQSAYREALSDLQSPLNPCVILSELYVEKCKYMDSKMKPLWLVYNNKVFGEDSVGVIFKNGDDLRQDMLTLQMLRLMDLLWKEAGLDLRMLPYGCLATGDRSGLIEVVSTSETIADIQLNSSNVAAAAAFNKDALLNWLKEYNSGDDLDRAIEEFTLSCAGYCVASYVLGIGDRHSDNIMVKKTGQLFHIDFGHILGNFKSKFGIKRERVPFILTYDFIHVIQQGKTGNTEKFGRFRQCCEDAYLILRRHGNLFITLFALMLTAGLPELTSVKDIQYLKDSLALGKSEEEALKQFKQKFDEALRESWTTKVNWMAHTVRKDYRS
Procedure, shortened: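 Compounds are profiled for binding to the kinase using KINOMEscan. The affinity is then reported as an inhibitor Kd in nanomolar units.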

PI3Kδ = molecular target: T2, PI3Kδ (Homo sapiens, UniProt O00329); assay: Enzyme binding assay (KINOMEscan, DiscoveRx); settings: PIK3Cδ_h
T2 construct: purchased DiscoveRx Corporation, San Diego (contract service, KINOMEscan)
T2 sequence (O00329 1-1044): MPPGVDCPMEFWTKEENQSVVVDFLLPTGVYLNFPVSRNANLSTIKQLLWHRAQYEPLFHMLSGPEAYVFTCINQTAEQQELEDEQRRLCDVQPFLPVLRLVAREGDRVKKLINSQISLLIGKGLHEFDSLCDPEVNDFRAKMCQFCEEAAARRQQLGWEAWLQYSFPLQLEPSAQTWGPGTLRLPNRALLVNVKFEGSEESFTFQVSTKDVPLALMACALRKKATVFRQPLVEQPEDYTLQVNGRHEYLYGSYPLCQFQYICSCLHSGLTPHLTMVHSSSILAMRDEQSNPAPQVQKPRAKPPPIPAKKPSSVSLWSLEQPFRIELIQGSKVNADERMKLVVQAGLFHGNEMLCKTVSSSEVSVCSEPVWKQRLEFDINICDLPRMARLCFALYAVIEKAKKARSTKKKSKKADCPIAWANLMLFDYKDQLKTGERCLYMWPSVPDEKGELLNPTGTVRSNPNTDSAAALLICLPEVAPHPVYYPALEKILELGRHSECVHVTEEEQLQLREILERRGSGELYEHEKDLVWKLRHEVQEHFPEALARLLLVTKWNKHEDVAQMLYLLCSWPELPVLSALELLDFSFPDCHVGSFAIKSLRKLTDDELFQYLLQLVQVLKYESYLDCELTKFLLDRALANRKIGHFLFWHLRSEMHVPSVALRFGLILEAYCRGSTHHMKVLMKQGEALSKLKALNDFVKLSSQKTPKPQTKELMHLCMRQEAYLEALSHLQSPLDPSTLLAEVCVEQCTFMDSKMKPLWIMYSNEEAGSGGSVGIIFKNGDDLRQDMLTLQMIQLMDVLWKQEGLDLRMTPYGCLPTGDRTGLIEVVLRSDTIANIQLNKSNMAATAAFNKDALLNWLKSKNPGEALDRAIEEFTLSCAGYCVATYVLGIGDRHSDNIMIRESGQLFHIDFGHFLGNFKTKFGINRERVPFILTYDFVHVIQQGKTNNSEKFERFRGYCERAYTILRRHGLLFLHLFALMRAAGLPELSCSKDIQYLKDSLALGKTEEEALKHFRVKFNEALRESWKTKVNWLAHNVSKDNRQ
Procedure, shortened: (§2)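 Compounds were profiled by KINOMEscan to obtain kinase binding affinities.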

kinase enzymes [2] = molecular target: T3, kinase enzymes (Homo sapiens, UniProt P42345); assay: Enzyme binding assay (KINOMEscan, DiscoveRx), further kinases of Table A; settings: MTOR_h
T3 construct: purchased DiscoveRx Corporation, San Diego (contract service, KINOMEscan)
Procedure, shortened: as §2

kinase enzymes [3] = molecular target: T4, kinase enzymes (Homo sapiens, UniProt P48736); assay: as above; settings: PIK3Cγ_h
T4 construct: purchased DiscoveRx Corporation, San Diego (contract service, KINOMEscan)
T4 sequence (P48736 whole entry): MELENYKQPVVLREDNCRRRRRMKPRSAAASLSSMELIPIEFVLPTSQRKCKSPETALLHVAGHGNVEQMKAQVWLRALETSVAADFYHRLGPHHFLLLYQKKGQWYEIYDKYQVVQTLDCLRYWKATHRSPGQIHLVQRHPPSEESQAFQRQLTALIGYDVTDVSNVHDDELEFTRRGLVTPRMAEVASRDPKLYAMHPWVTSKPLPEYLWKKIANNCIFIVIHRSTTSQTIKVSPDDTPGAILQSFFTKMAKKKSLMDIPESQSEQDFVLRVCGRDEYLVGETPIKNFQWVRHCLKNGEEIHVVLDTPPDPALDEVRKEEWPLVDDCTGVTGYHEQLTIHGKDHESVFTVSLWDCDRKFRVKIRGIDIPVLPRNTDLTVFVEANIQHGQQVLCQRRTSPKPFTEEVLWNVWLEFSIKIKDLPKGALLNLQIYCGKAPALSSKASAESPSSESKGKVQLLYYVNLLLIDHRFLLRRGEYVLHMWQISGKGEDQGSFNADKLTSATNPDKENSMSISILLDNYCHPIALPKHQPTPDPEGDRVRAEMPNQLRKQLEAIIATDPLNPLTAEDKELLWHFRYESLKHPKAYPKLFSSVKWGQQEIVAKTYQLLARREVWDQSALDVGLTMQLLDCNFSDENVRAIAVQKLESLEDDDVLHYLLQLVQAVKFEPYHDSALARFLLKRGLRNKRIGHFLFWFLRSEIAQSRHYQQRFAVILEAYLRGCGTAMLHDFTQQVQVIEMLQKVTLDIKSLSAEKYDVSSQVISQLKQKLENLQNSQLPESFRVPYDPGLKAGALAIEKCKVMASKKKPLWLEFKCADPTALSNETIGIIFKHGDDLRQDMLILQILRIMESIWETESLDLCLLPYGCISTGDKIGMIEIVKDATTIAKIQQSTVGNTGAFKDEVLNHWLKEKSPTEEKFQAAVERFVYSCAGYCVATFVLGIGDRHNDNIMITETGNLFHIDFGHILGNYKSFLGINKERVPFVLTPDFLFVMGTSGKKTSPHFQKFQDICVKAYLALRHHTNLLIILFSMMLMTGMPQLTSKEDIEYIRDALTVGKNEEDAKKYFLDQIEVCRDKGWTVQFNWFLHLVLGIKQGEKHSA
Procedure, shortened: as §2

kinase enzymes [4] = molecular target: T5, kinase enzymes (Homo sapiens, UniProt P42336); assay: as above; settings: PIK3Cα_h
T5 construct: purchased DiscoveRx Corporation, San Diego (contract service, KINOMEscan)
T5 sequence (P42336 whole entry): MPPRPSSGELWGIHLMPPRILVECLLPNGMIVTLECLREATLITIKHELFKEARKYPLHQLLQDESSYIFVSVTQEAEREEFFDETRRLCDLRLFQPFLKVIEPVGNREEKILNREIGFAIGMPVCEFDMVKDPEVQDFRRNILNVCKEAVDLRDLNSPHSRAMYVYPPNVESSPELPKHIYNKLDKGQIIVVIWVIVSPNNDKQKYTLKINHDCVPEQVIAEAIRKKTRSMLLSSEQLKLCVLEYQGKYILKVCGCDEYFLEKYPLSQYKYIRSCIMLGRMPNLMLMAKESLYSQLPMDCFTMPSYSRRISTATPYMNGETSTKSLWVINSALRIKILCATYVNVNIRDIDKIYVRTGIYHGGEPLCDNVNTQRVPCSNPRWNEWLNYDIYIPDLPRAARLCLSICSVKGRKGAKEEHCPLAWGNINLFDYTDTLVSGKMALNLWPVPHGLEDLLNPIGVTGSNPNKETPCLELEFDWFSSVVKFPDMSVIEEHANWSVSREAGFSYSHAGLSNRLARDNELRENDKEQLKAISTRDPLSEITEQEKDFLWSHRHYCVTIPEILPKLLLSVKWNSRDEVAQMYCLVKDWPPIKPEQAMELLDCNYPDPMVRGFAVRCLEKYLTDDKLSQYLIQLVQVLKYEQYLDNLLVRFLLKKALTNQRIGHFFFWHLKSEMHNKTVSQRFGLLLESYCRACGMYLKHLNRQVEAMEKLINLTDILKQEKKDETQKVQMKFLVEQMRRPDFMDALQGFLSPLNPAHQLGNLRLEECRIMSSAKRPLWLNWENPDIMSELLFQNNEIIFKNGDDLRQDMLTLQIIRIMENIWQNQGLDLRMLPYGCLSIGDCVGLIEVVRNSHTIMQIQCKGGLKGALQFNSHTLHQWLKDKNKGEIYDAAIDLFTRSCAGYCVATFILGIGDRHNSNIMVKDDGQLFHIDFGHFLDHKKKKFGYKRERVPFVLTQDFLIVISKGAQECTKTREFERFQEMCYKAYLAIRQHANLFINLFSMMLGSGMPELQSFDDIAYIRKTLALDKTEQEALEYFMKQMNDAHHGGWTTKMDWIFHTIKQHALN
Procedure, shortened: as §2

[5] = test system: Akt phosphorylated at Thr308 in PC-3 cells; assay: Cellular assay: phosphorylation of Akt at Thr308 in PC-3 cells (MSD ELISA); type: cell-based; settings: Homo sapiens, PC-3, 1 h, PC-3 cells, 60 min compound incubation, MSD ELISA; read-out: IC50 pAkt_Thr308
Procedure, shortened: as §1

| SMILES | IC50 ([1]; Homo sapiens, PC-3, 1 h) [nM] | Kd (PI3Kβ) [nM] | Kd (PI3Kδ) [nM] | Kd (kinase enzymes [2]) [µM] | Kd (kinase enzymes [3]) [µM] | Kd (kinase enzymes [4]) [µM] | IC50 [5] [nM] | melting point [°C] | IC50 [1] [nM] |
| --- | --- | --- | --- | --- | --- | --- | --- | --- | --- |
| Cc1c(F)cccc1CNc1cc(C(=O)NCCO)cc2ncc(N3CCOCC3)nc12 [Compound 336] | 85 | 4 | 871 | 11 | 9.12 | 1.95 | 46 | 194 | – |
| CNCCNC(=O)c1cc(NCc2cc(F)cc(F)c2)c2nc(N3CCOCC3)cnc2c1 [Compound 340] | 76 | 2 | 372 | 12 | 5.01 | 1.51 | 50 | 180 | – |
| CC(Nc1ccc(F)c(F)c1)c1cc(C(=O)N2CCN3CCC[C@@H]3C2)cc2ncc(N3CCOCC3)nc12 (stereo partly drawn) [Compound 347] | – | 4 | 407 | > 30.2 | 28.8 | 3.72 | 63 | 170 | 219 |
| CC(Oc1ccc(F)c(F)c1)c1cc(C(=O)N(C)CCN(C)C)cc2ncc(N3CCOCC3)nc12 (stereo not drawn) [Compound 353] | 52 | 4 | 692 | > 30.2 | > 30.2 | 5.01 | 18 | 80 | – |
| CN(C(=O)c1cc(NCc2cc(F)cc(F)c2)c2nc(N3CCOCC3)cnc2c1)[C@@H]1CCNC1 [Compound 355] | > 513 | 13 | 2880 | 13.2 | 20.9 | 4.79 | 437 | 80 | – |
| CC1CN(C(=O)c2cc(C(C)Nc3ccc(F)c(F)c3)c3nc(N4CCOCC4)cnc3c2)CC(C)N1 (stereo not drawn) [Compound 357b] | 30 | 1 | 158 | > 30.2 | 8.13 | 0.933 | 14 | 120 | – |
| CN(C)C(=O)c1cc(N(C)Cc2cc(F)cc(F)c2)c2nc(N3CCOCC3)cnc2c1 [Compound 358] | > 513 | 148 | 2240 | > 30.2 | 17.8 | 10 | > 513 | 80 | – |
| CC(C)NCCNC(=O)c1cc(C(C)Nc2ccc(F)c(F)c2)c2nc(N3CCOCC3)cnc2c1 (stereo not drawn) [Compound 364] | 49 | 5 | 813 | > 30.2 | 13.8 | 7.41 | 43 | 80 | – |
| CC(Nc1ccc(F)c(F)c1)c1cc(C(=O)NC[C@H]2CCCN2)cc2ncc(N3CCOCC3)nc12 (stereo partly drawn) [Compound 376] | 105 | 1 | 295 | > 30.2 | 5.13 | 4.27 | 85 | 130 | – |
| Cc1c(F)cccc1NCc1cc(C(=O)N(C)C)cc2ncc(N3CCOCC3)nc12 [Compound 382] | 513 | 17 | 5010 | > 30.2 | > 30.2 | > 30.2 | 91 | 150 | – |
| Cc1c(F)cccc1CNc1cc(C(=O)NCCN(C)C)cc2ncc(N3CCOCC3)nc12 [Compound 383] | 23 | 1 | 234 | 7.08 | 7.94 | 1.23 | 6 | 172 | – |
| CN(C)CCNC(=O)c1cc(CNc2cc(F)cc(F)c2)c2nc(N3CCOCC3)cnc2c1 [Compound 394] | ~26.3 | 0.2 | 776 | 23.4 | 12.6 | 3.24 | 18 | 161 | – |
| CN(C)C(=O)c1cc(N2CCCC2c2cc(F)cc(F)c2)c2nc(N3CCOCC3)cnc2c1 (stereo not drawn) [Compound 395] | > 513 | 33 | 2240 | 18.2 | 14.1 | 3.47 | > 513 | 80 | – |
| CN(C)C(=O)c1cc(N2CCC2c2ccc(F)cc2)c2nc(N3CCOCC3)cnc2c1 (stereo not drawn) [Compound 397] | > 513 | 36 | 661 | > 30.2 | 22.9 | 2.69 | > 513 | 70 | – |
| Cc1c(CNc2cc(C(=O)N(C)C)cc3ncc(N4CCOCC4)nc23)cccc1C(F)(F)F [Compound 399] | > 513 | 45 | 5250 | > 30.2 | 9.33 | 2.82 | > 513 | 202 | – |
| CN(C)C(=O)c1cc(NCc2ccc(F)cc2)c2nc(N3CCOCC3)cnc2c1 [Compound 400] | 457 | 24 | 1590 | 26.3 | 18.6 | 2.34 | ~372 | 80 | – |
| C[C@H](Nc1cc(C(=O)N(C)C)cc2ncc(N3CCOCC3)nc12)c1ccc(F)cc1 [Compound 401] | > 513 | 550 | 12300 | 11.5 | > 30.2 | 1.86 | > 513 | 80 | – |
| CC(Nc1cc(C(=O)N(C)C)cc2ncc(N3CCOCC3)nc12)c1cc(F)cc(F)c1 (stereo not drawn) [Compound 402] | > 513 | 44 | 4070 | > 30.2 | > 30.2 | 4.47 | > 513 | 80 | – |
